From US10350213B2 (AI Therapeutics, Inc., priority 2015, dated 2019)
Like-named read-outs stand apart in the source and are kept apart here.

Assays:
[1] = system: TSC2−/− mouse embryonic fibroblasts (TSC2−/− MEF) cells; experiment: High throughput cell viability screen (CellTiter-Glo); assay type: cell-based; details: 72 h
Method: (§1) Briefly, test compounds (5 μl stock solution, 6×desired final well concentration) were dispensed to 384-well assay plates, TSC2−/− MEF cells (1000 cells per well in 25 μL of media) were added to the plates and the plates were incubated for 72 h (3 days) at 37° C. under an atmosphere of 5% CO2 in a humidified incubator for 3 days. Cell viability was determined with CellTiter-Glo® luminescence assay (Promega) per the manufacturer's instructions. Viability was expressed as a percentage of untreated control cells.

[2] = biological target: T1, Vac14 (Homo sapiens, UniProt Q08AM6); experiment: Chemical capture mass spectrometry (CCMS); assay type: binding; details: apilimod as competitor ligand
T1 construct: whole cell lysate prepared from human neuroglioma cells; endogenous in cells; host or cells: human neuroglioma cells (whole cell lysate)
Method: (§2) This work was performed at Caprotec Bioanalytics GmbH, Berlin Germany. See Michaelis et al., J. Med. Chem., 55 3934-44 (2012) and references cited therein. […] Capture conditions were optimized in whole cell lysate, e.g. minimization of non-specific interactions of the proteins with capture compounds, concentration of reagents and proteins to obtain maximum binding of proteins and capture compounds, etc. […] These specific binders were further subjected to stringent data analysis criteria to determine specificity after unbiased data evaluation. Specific protein binders were ranked according to their fold change (FC) values in the capture experiments.

[3] = biological target: T2, PIKfyve (Homo sapiens, UniProt Q9Y2I7); experiment: Chemical capture mass spectrometry (CCMS); assay type: binding; details: apilimod as competitor ligand
T2 construct: whole cell lysate prepared from human neuroglioma cells; endogenous in cells; host or cells: human neuroglioma cells (whole cell lysate)
Method: as §2

[4] = system: M0591K (Human neuroblastoma); experiment: CellTiterGlo cell viability assay; assay type: cell-based
[5] = Phase 1 dose-escalation (QD/BID) study in normal healthy volunteers; assay type: in vivo, human; details: for Cmax: oral, human plasma, mean
[6] = system: NCI-H1781 (Human bronchioalveolar); experiment: CellTiterGlo cell viability assay; assay type: cell-based
[7] = system: RPMI-8226 (Human plasmacytoma); experiment: CellTiterGlo cell viability assay; assay type: cell-based
[8] = system: TOV-21G (Human ovarian); experiment: CellTiterGlo cell viability assay; assay type: cell-based; details: TOV21G
[9] = system: SUDHL-6 human DLBCL cancer xenograft; experiment: Subcutaneous SUDHL-6 human DLBCL cancer xenograft model; assay type: in vivo, NOD-SCID mice
Method: The tumor cells were sub-cultured twice weekly and harvested during exponential growth for tumor inoculation. NOD-SCID mice were γ-irradiated 24 hrs before inoculation. Each mouse was inoculated subcutaneously in the right flank with SU-DHL-6 tumor cells (5×10^6) in 0.1 ml of PBS with Matrigel (1:1). The tumors were then grown to a mean size of approximately 80-120 mm^3 and the mice were then split into 5 groups and treated as detailed in the Table 5.
Tumor size was measured twice a week in two dimensions using a caliper, and the volume is expressed in mm^3 using the formula: V=0.5 a×b^2 where a and b are the long and short diameters of the tumor, respectively.
Each mouse was inoculated subcutaneously in the right flank with SU-DHL-6 tumor cells (5×10^6) in 0.1 ml of PBS with Matrigel (1:1). The tumors were then grown to a mean size of approximately 80-120 mm^3 and the mice were then split into 6 groups and treated as detailed in the Table 6.

[10] = system: CAMA1 (Human breast cancer); experiment: CellTiterGlo cell viability assay; assay type: cell-based; details: CAMA-1
Method: as §1
35 cell lines were identified as sensitive to apilimod-induced cytotoxicity in this assay. The apilimod-sensitive cells included cells derived from several different cancers including non-Hodgkin's lymphoma, Hodgkin's lymphoma, colorectal cancer, and lung cancer. The most sensitive of those tested were non-Hodgkin's Lymphoma (NHL) cell lines. […] The only NHL subtype not sensitive in this assay was follicular.

[11] = system: 456 kinases (PIKfyve not included); experiment: Kinase panel binding screen (DiscoveRx); details: screening concentration 1 μM
Description: Next, apilimod was screened against a comprehensive panel of kinases (PIKfyve not included).

[12] = system: DU145 (Human prostate cancer); experiment: CellTiterGlo cell viability assay; assay type: cell-based; details: DU-145
[13] = system: U-87 MG (Human neuroblastoma); experiment: CellTiterGlo cell viability assay; assay type: cell-based
[14] = system: H358 (Human lung carcinoma); experiment: CellTiterGlo cell viability assay; assay type: cell-based; details: NCI-H358
[15] = system: H4 neuroglioma cells; experiment: Endolysosomal (vacuole) phenotype, DIC images; assay type: cell-based, Human; details: 100 nM apilimod, 24 hrs
Description: PIKfyve produces the lipid products PI(3,5)P2 and PI5P, which in turn serve to establish membrane identity and control endolysosomal dynamics. Studies have shown that the PI(3,5)P2 depletion arising from inhibition of PIKfyve produces a swollen endolysosome phenotype. […] This phenotype was reversible, and cancer cell lines reverted to normal appearance within 3-4 days after drug removal.

[16] = system: AsPC1 (Human pancreatic cancer); experiment: CellTiterGlo cell viability assay; assay type: cell-based
[17] = system: THP1 (Human acute monocytic leukemia); experiment: CellTiterGlo cell viability assay; assay type: cell-based; details: THP-1

T1 sequence (Q08AM6 whole entry): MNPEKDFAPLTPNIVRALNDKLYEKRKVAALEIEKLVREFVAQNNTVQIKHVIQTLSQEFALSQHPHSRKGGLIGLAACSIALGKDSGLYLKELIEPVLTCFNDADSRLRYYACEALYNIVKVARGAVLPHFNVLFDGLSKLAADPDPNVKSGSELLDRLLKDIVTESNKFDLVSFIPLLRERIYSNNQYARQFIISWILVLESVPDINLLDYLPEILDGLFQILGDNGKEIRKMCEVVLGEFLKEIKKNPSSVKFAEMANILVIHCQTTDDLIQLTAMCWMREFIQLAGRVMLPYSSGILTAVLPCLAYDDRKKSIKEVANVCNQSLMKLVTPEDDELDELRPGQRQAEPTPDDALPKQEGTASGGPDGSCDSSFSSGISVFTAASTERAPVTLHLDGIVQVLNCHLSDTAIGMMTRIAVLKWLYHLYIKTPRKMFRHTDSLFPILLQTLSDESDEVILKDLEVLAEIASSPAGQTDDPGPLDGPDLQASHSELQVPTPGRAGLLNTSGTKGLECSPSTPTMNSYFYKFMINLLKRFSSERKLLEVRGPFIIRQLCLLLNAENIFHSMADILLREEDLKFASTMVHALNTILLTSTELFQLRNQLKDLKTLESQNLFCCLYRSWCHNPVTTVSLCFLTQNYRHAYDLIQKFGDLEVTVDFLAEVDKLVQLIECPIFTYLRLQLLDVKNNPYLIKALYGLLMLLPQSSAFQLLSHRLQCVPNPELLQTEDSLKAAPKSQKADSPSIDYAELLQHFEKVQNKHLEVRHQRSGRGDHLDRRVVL
T1 sequence (Q9Y2I7 2-2098 partner): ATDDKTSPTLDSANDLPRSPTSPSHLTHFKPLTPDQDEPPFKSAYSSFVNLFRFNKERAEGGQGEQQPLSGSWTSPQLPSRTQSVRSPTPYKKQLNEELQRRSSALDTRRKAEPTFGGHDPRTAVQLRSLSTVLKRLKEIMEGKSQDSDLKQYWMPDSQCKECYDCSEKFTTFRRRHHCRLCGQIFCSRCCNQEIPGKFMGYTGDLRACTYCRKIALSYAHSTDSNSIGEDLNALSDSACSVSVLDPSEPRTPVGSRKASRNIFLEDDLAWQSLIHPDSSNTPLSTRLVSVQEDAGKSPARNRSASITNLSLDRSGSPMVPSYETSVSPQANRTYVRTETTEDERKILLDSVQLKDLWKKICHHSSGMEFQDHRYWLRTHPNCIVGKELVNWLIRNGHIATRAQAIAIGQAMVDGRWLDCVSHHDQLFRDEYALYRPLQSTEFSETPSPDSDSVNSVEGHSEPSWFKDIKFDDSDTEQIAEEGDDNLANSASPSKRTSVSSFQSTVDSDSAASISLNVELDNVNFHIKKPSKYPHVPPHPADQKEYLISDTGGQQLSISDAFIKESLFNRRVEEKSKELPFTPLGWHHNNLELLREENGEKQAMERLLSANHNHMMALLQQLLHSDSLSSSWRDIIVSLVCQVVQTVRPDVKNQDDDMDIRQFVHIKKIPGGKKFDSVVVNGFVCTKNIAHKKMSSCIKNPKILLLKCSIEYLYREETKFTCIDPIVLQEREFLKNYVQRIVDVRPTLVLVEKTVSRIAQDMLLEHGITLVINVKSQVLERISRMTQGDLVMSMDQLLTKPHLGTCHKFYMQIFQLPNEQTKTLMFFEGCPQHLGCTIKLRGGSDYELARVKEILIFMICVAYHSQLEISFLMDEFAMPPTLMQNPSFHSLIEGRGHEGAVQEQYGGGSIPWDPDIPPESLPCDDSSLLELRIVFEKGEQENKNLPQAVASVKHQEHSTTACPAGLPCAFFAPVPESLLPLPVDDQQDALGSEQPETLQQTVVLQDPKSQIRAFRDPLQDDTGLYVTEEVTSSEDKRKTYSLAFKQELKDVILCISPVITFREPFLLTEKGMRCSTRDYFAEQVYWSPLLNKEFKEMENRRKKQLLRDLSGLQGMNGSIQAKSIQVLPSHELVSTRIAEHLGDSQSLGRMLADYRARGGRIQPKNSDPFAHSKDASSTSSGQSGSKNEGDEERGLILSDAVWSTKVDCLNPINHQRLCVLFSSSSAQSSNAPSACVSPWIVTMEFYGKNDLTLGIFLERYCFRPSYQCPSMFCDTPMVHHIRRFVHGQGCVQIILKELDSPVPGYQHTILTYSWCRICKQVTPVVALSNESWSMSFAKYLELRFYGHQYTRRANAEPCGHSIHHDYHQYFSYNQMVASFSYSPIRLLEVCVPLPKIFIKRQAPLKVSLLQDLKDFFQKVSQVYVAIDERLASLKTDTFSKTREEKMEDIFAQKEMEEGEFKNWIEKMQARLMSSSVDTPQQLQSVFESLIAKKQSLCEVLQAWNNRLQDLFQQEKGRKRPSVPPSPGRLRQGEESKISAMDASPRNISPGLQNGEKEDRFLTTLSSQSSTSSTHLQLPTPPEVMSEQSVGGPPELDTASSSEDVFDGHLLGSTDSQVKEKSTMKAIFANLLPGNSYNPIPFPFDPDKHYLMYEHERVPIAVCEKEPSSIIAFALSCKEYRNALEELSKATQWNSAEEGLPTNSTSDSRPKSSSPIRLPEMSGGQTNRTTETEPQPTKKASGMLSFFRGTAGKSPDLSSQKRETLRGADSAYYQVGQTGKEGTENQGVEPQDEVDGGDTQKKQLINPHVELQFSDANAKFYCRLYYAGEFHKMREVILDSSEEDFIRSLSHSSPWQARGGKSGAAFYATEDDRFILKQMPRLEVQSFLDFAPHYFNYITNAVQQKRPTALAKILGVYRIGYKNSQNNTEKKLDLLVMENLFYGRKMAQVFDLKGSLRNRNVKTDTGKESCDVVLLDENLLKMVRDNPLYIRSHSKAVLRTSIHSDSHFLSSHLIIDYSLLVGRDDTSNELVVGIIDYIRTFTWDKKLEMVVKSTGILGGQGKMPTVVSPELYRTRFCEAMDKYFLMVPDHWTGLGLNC
T2 sequence (Q9Y2I7 whole entry): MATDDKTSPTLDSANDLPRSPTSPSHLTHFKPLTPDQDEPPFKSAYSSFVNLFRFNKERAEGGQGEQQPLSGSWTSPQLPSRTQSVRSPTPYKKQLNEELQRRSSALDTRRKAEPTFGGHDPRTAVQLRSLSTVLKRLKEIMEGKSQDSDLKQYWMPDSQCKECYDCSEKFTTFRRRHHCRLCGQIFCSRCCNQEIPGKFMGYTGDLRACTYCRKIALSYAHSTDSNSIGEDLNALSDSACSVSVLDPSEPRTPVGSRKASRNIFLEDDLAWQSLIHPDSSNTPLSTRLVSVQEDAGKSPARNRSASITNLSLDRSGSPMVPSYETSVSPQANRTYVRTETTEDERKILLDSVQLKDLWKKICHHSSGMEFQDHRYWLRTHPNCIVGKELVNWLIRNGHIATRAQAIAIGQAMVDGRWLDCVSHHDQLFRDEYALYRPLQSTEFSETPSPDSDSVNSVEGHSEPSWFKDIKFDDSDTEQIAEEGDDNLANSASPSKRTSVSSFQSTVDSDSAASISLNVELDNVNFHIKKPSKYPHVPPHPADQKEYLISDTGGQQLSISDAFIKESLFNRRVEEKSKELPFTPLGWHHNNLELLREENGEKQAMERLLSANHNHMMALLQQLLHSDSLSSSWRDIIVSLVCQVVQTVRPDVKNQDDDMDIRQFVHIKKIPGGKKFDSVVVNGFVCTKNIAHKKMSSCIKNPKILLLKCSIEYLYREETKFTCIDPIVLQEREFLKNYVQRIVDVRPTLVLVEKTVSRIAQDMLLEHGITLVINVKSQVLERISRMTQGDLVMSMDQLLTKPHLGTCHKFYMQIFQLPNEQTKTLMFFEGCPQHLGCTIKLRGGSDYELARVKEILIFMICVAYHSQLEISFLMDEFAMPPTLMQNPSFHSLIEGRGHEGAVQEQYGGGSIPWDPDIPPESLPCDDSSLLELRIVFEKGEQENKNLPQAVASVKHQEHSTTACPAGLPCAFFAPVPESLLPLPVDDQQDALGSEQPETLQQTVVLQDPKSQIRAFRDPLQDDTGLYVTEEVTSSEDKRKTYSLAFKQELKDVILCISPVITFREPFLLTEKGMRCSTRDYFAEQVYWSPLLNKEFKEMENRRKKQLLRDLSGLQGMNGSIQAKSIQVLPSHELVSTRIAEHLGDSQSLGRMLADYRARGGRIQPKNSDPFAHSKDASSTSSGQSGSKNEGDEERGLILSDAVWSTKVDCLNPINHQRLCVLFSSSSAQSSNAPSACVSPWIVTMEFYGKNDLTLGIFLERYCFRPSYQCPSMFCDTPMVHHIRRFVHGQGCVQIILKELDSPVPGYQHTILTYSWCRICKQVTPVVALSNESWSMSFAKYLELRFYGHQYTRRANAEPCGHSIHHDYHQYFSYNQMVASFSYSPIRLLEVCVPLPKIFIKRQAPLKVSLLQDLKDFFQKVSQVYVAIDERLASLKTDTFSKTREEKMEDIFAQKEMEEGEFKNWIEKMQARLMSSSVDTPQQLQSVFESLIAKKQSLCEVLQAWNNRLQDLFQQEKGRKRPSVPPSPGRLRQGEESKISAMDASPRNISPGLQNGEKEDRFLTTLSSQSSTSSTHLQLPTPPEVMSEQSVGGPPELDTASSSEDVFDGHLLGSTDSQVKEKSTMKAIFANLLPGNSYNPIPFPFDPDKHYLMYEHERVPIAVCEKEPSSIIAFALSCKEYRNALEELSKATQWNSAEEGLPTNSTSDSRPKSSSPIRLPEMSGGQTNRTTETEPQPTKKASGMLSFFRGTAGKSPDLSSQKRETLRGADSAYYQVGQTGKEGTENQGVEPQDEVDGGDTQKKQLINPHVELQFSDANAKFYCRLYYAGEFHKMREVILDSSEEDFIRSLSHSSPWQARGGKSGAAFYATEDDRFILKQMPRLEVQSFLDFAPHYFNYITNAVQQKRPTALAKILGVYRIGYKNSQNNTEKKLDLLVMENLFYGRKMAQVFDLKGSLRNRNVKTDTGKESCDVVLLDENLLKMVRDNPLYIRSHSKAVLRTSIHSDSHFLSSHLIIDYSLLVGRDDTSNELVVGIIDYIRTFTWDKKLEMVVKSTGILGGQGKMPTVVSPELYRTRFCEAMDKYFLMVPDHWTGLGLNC

`Cc1cccc(/C=N/Nc2cc(N3CCOCC3)nc(OCCc3ccccn3)n2)c1` [apilimod] gave a viability at 0.5 µM ([1]; MEF-EV, 0.5 μM, Mean+/−StDev, n=3, read-out: cell viability (percentage of untreated control cells)) of 2.16%, a viability at 5 µM ([1]; MEF-EV, 5 μM, Mean+/−StDev, n=3, read-out: cell viability (percentage of untreated control cells)) of 1.94% and an IC50 ([1]; TSC2−/− MEF cells, 10 point dose-response) of 0.0195 µM. The “log2 (FC)” value ([2]; capture compound 0.1 μM) was 6.2, the “log2 (FC)” value ([2]; capture compound 0.5 μM) was 5.6 and the “log2 (FC)” value ([2]; capture compound 1.0 μM) was “Inf”. For the same compound, the “log2 (FC)” value ([2]; capture compound 2.0 μM) was 3.9, the “log2 (FC)” value ([3]; capture compound 0.1 μM, human neuroglioma whole cell lysate) was 6.3 and the “log2 (FC)” value ([3]; capture compound 0.5 μM) was 6.2. The “log2 (FC)” value ([3]; capture compound 1.0 μM) was 4.1, the “log2 (FC)” value ([3]; capture compound 2.0 μM) was 4.3 and the IC50 [4] was over 10 µM. The “share of the 24 hr period with plasma concentrations above 50 ng/ml” value ([5]; 50 ng/ml equal to 125 nM, 105 mg BID) was about 50%, the safety profile ([5]; 105 mg BID, humans) was “tolerable safety profile” and the Cmax ([5]; Treatment E: 70 mg ×2, total 140 mg, read-out: PM Cmax) was 110 ng/mL. For the same compound, the Cmax ([5]; human, plasma, po, 7 mg, Treatment A: 7 mg once, total 7 mg, read-out: AM Cmax) was 10.8 ng/mL, the Cmax ([5]; human, plasma, po, 7 mg, Treatment B: 7 mg ×2, total 14 mg, read-out: AM Cmax) was 12.7 ng/mL and the Cmax ([5]; human, plasma, po, 7 mg, Treatment B: 7 mg ×2, total 14 mg, read-out: PM Cmax) was 8.18 ng/mL. The Cmax ([5]; human, plasma, po, 14 mg, Treatment C: 14 mg ×2, total 28 mg, read-out: AM Cmax) was 18.2 ng/mL, the Cmax ([5]; human, plasma, po, 14 mg, Treatment C: 14 mg ×2, total 28 mg, read-out: PM Cmax) was 10.7 ng/mL and the Cmax ([5]; human, plasma, po, 35 mg, Treatment D: 35 mg ×2, total 70 mg, read-out: AM Cmax) was 71.8 ng/mL. It also gave a Cmax ([5]; human, plasma, po, 35 mg, Treatment D: 35 mg ×2, total 70 mg, read-out: PM Cmax) of 63 ng/mL, a Cmax ([5]; human, plasma, po, 70 mg, Treatment E: 70 mg ×2, total 140 mg, read-out: AM Cmax) of 145 ng/mL and a Cmax ([5]; human, plasma, po, 105 mg, Treatment F: 105 mg ×2, total 210 mg, read-out: AM Cmax) of 192 ng/mL. For the same compound, the Cmax ([5]; human, plasma, po, 105 mg, Treatment F: 105 mg ×2, total 210 mg, read-out: PM Cmax) was 149 ng/mL, the IC50 [6] was over 20 µM and the IC50 [7] was over 10 µM. The IC50 [8] was 7 µM, the tumor growth inhibition ([9]; 75 mg/kg apilimod free base p.o. QD×5, 2 days off, QD×5, 31 days) was 57% and the “effect on body weight” value ([9]; all apilimod treatment arms, i.v. and p.o., 29 days) was “negligible effect on body weight”. For the same compound, the “reduction of tumor size” value ([9]; apilimod dimesylate 67.5 mg/kg (47 mg/kg free base) i.v. QD×5, 2 days off, QD×5, 29 days) was 58%, the “reduction of tumor growth” value ([9]; apilimod free base p.o. 150 mg/kg single dose (QD×5, 2 days off), 29 days) was 64% and the “reduction of tumor growth” value ([9]; apilimod free base p.o. 150 mg/kg split dose (75 mg/kg BID×5, 2 days off, BID×5), 29 days) was 68%. The IC50 [10] was over 10 µM, the “binding to kinase panel” value [11] was “did not bind to any of the 456 kinases tested” and the IC50 [12] was over 2 µM. The IC50 [13] was over 10 µM, the IC50 [14] was over 2 µM and the cell phenotype [15] was “striking swollen endolysosomal (vacuole) phenotype”. It also gave an IC50 [16] of over 2 µM and an IC50 [17] of over 10 µM.
